Reference: patent US11510931B2, “Compositions and methods for treating ophthalmic conditions” (MEDICON PHARMACEUTICALS, INC., priority 2016, dated 2022)
Where two headings read alike, the source gives them in different places.

Columns and labels:
[1] = system: MMP-9; assay: MMP-9 levels in lacrimal gland and aqueous humor of rabbits with DED (ELISA); assay type: in vivo, rabbit
Protocol: In an in vitro assay with purified MMP-1 (collagenase I) as […] it was shown that PS inhibited collagenase activity with an IC50 of <100 nM. In cultured human conjunctiva cells, PS suppressed MMP-1 by 75%-86%. In the lacrimal glands of rabbits with DED treated with PS eye drops, PS suppressed MMP-9 levels by 27% compared to vehicle treated rabbits (2.20±0.24 vs. 1.66±0.20 ng/mg protein; p<0.05; mean±SEM).

[2] = Ocular biodistribution of PS after topical eye drops in New Zealand white rabbits (HPLC); assay type: in vivo, rabbit
Protocol: Results: The above PS formulation was administered topically as eye drops to the eyes of New Zealand white rabbits. The levels of PS in ocular tissues 1 h and 3 h later were determined by HPLC. The Table below summarizes the findings:
Results: The above PS formulation was administered topically as eye drops to the eyes of New Zealand white rabbits. The levels of PS in ocular tissues at 2 h later were determined by HPLC. The table below summarizes the findings.
Results: PS in this formulation was administered topically to the eyes of New Zealand white rabbits and its biodistribution was determined as above. The Table below summarizes the findings.
Results: PS in this formulation was administered topically as eye drops to the eyes of New Zealand white rabbits. The biodistribution of PS in ocular tissues at 3 h and 6 h was determined by HPLC. The Table below summarizes the findings.
Biodistribution of PS after topical administration: PS formulated in nanoparticles as above was administered topically as eye drops to New Zealand white rabbits. The biodistribution of PS in ocular tissues at the indicated time points post administration was determined by HPLC. The Table below summarizes the findings.
Biodistribution of PS after topical administration: PS in the formulations was administered topically as eye drops to the eyes of New Zealand white rabbits. The levels of PS in ocular tissues at 0.5 h, 1 h and 3 h were determined by HPLC. The Table below summarizes the findings.
To assess the contribution of the foregoing formulations to the PK/biodistribution of PS in the ocular tissues, a solution of PS in pure propylene glycol (PG) was studied. PG is well tolerated by the eye. A 3.5% PS solution (in PG) as eye drops was administered topically to the eyes of New Zealand white rabbits and its 1-hour biodistribution was determined by HPLC. The Table summarizes the findings.

[3] = 0.5 h, topical, 0.4% gellan gum in-situ gel, 2.4-3% PS
[4] = 1 h, topical eye drops, 3.5% PS/16% Vitamin E TPGS/mannitol/boric acid
[5] = 1 h, topical, 0.4% gellan gum in-situ gel, 2.4-3% PS
[6] = 1 h, topical, sodium alginate/Tween 80 in-situ gel, 3% PS
[7] = 2 h, topical, 0.5% gellan gum in-situ gel, 2.4~3% PS
[8] = 3 h, topical eye drops, 3.5% PS/16% Vitamin E TPGS/mannitol/boric acid
[9] = 3 h, topical, 0.4% gellan gum in-situ gel, 2.4-3% PS
[10] = 3 h, topical, Poloxamer 407 in-situ gel, 5.4% PS
[11] = 3 h, topical, sodium alginate/Tween 80 in-situ gel, 3% PS
[12] = 5 h, topical, 0.4% gellan gum in-situ gel, 2.4-3% PS
[13] = 5 h, topical, sodium alginate/Tween 80 in-situ gel, 3% PS
[14] = 8 h, topical, 0.4% gellan gum in-situ gel, 2.4-3% PS

CCOP(=O)(OCC)OCCCCOC(=O)CC1=C(C)/C(=C/c2ccc([S+](C)[O-])cc2)c2ccc(F)cc21 (stereo not drawn) [PS, phosphosulindac]
MMP-9 levels suppression compared to vehicle ([1]; lacrimal glands of rabbits with DED, PS eye drops): 27% | MMP-9 levels ([1]; lacrimal glands of rabbits with DED, PS eye drops, mean±SEM): 1.66±0.20 ng/mg protein | MMP-9 levels in the ILG and the aqueous humor ([1]; rabbits with DED treated with PS for 1 week): back to normal | PS in Aqueous humor [2, 3]: 0.6 µM | PS in Conjunctiva [2, 3]: 37.7 µM | PS in Cornea [2, 3]: 24.3 µM | PS in Aqueous humor [2, 4]: 2.3 µM | PS in Choroid [2, 4]: 3.2 µM | PS in Conjunctiva [2, 4]: 9.3 µM | PS in Cornea [2, 4]: 6.9 µM | PS in Iris [2, 4]: 0.7 µM | PS in Lacrimal gland [2, 4]: 0.1 µM | PS in Lens [2, 4]: 1.8 µM | PS in Retina [2, 4]: 2.7 µM | PS in Sclera [2, 4]: 2.3 µM | PS in Vitreous body [2, 4]: 3.6 µM | PS in Aqueous humor [2, 5]: 0.4 µM | PS in Conjunctiva [2, 5]: 20.8 µM | PS in Cornea [2, 5]: 50.8 µM | PS in Aqueous humor [2, 6]: 0.4 µM | PS in Conjunctiva [2, 6]: 4.9 µM | PS in Cornea [2, 6]: 17.8 µM | PS in Aqueous humor [2, 7]: 1.2 µM | PS in Conjunctiva [2, 7]: 24.1 µM | PS in Cornea [2, 7]: 72.0 µM | PS in Aqueous humor [2, 8]: 0.1 µM | PS in Choroid [2, 8]: 0.2 µM | PS in Conjunctiva [2, 8]: 0.5 µM | PS in Cornea [2, 8]: 0.8 µM | PS in Iris [2, 8]: 0.9 µM | PS in Lacrimal gland [2, 8]: 0.5 µM | PS in Lens [2, 8]: 0.1 µM | PS in Retina [2, 8]: 0.2 µM | PS in Sclera [2, 8]: 0.2 µM | PS in Conjunctiva [2, 9]: 0.7 µM | PS in Cornea [2, 9]: 1.5 µM | PS in Choroid [2, 10]: 0.9 µM | PS in Cornea [2, 10]: 45.1 µM | PS in Aqueous humor [2, 11]: 0.3 µM | PS in Conjunctiva [2, 11]: 2.1 µM | PS in Cornea [2, 11]: 5.0 µM | PS in Conjunctiva [2, 12]: 1.1 µM | PS in Cornea [2, 12]: 1.1 µM | PS in Conjunctiva [2, 13]: 2.3 µM | PS in Cornea [2, 13]: 1.0 µM | PS in Conjunctiva [2, 14]: 0.7 µM | PS in Cornea [2, 14]: 1.6 µM | PS in Conjunctiva ([2]; 8 h, topical, sodium alginate/Tween 80 in-situ gel, 3% PS): 1.3 µM | concentration at 5 h ([2]; New Zealand white, rabbit, aqueous humor, topical, 3 % PS, 5 h, topical, sodium alginate/Tween 80 in-situ gel, 3% PS, read-out: PS in Aqueous humor): 0 nM | concentration at 8 h ([2]; New Zealand white, rabbit, aqueous humor, topical, 3 % PS, 8 h, topical, sodium alginate/Tween 80 in-situ gel, 3% PS, read-out: PS in Aqueous humor): 0 nM | concentration at 1 h ([2]; New Zealand white, rabbit, aqueous humor, topical, 3.5 % PS solution (eye drops), 1 h, topical eye drops, 3.5% PS solution in propylene glycol, read-out: PS in Aqueous humor): 700 nM | concentration at 3 h ([2]; New Zealand white, rabbit, aqueous humor, topical, 5.4 % PS, 3 h, topical, Poloxamer 407 in-situ gel, 5.4% PS, read-out: PS in Aqueous humor): 300 nM | concentration at 6 h ([2]; New Zealand white, rabbit, aqueous humor, topical, 5.4 % PS, 6 h, topical, Poloxamer 407 in-situ gel, 5.4% PS, read-out: PS in Aqueous humor): 300 nM | concentration at 3 h ([2]; New Zealand white, rabbit, aqueous humor, topical, 3 h, topical, 0.4% gellan gum in-situ gel, 2.4-3% PS, read-out: PS in Aqueous humor): 0 nM
